Target: T1, human β3 adrenergic receptor (Homo sapiens, UniProt P13945)
T1 construct: expressed in transfected cells; host or cells: DXB-11 Chinese hamster ovary (CHO) cell line, stably transfected (phd expression vector)
Assay: whole cell receptor coupled c-AMP assay (Emax relative to isoproterenol)
Type: cell-based
Conditions: transfected CHO cells, c-AMP SPA; compound's maximal response divided by isoproterenol maximal response times 100; average of at least 3 runs; SEM in brackets; read-out: Emax (SEM), % intrinsic activity relative to isoproterenol
Description: The Emax values represent the average of at least 3 runs except as otherwise indicated.
The genes encoding the human β1-adrenergic receptor (Frielle et al., Proc. Natl. Acad. Sci., 84:7920–7924, 1987), the human β2-adrenergic receptor (Kobika et al., Proc. Natl. Acad. Sci., 84:46–50, 1987, Emorine et al., Proc. Natl. Acad. Sci., 84:6995–6999, 1987) and the human β3 adrenergic receptor (GraTineman et al., Molecular Pharmacology, 44(2):264–70, 1993) are individually subcloned into a phd expression vector (Grinnell el al., Bio/Technology, 5:1189–1192, 1987) and transfected into the DXB-11 Chinese hamster ovary (CHO) cell line by calcium phosphate precipitation methodology. The stably transfected cells are grown to 95% confluency in 95% Dulbecco's modified Eagles Medium (DMEM), 5% fetal bovine serum and 0.01% proline. Media is removed and the cells are washed with phosphate buffered (pH 7.4) saline (without magnesium and calcium). Cells are then lifted using an enzyme free cell dissociation solution (Specialty Media, Lavallette, N.J.) and pelleted by centrifugation.
Cells from each of the above cell lines are resuspended and added (20,000/well) to a 96-well plate. Cells are incubated at 37° C. with representative compounds of the invention for 20 minutes in buffer (Hank's balanced salt solution, 10 mM HEPES, 0.1% BSA, 1 mM L-ascorbic acid, 0.2% dimethyl sulfoxide, 1 mM 3-isobutyl-1-methylxanthine, pH 7.4). After halting the incubation with quench buffer (50 mM Na Acetate, 0.25% Triton X-100, pH 5.8), the c-AMP level is quantified by scintillation proximity assay (SPA) using a modification of the commercially available c-AMP kit (Amersham, Arlington Heights, Ill.) with rabbit anti-cAMP antibody (ICN Bioniedicals, Aurora, Ohio) for the kit.
Sigmoidal dose response curves, from the whole cell receptor coupled c-AMP assay are fit to a four parameter logistic equation using non linear regression: y=(a-d)/(1+(Dose/c)^b)+d where a and d are responses at zero and maximal dose, b is the slope factor and c is the EC50 as previously described (DeLean et al., Am. J. Physiol., 235, E97–E102, 1978). EC50 is assessed as the concentration producing 50% of the maximum response to each agonist.
Isoproterenol is accepted in the art as a non-selective β3 agonist and is widely used as a comparator in evaluating the activity of compounds. See Trends in Pharm. Sci., 15:3, 1994. The % intrinsic activity (Emax) of representative compounds of the invention is assessed relative to isoproterenol by the compound's maximal response divided by the isoproterenol maximal response times 100.

T1 sequence (P13945 whole entry): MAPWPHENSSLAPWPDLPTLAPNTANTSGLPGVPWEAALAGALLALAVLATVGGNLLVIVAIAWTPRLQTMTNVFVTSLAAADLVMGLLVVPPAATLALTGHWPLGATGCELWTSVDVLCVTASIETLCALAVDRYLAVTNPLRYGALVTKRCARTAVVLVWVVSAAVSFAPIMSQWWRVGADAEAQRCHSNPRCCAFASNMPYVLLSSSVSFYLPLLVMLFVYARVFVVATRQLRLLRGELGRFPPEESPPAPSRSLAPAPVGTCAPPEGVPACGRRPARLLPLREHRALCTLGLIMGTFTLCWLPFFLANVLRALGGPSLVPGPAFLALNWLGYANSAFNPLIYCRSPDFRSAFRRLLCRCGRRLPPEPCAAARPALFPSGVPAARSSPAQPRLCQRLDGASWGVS

| Emax | Structure (SMILES) |
| --- | --- |
| 58.2% | CC(C)(Cc1ccc(Oc2ccc(C(N)=O)cn2)cc1)NC[C@H](O)COc1cccc2[nH]c(=O)n(CC3CCC3)c12 [Example 17] |
| 66.8% | CC(C)(Cc1ccc(Oc2ncccc2C(N)=O)cc1)NC[C@H](O)COc1cccc2[nH]c(=O)n(CC3CCCC3)c12 [Example 20] |
| 63.7% | CC(C)(Cc1ccc(Oc2ccc(C(N)=O)cn2)cc1)NC[C@H](O)COc1cccc2[nH]c(=O)n(CC3CCCC3)c12 [Example 19] |
| 59.8% | CC(C)(Cc1ccc(Oc2ncccc2C(N)=O)cc1)NC[C@H](O)COc1cccc2[nH]c(=O)n(CC3CCC3)c12 [Example 18] |

The next lines start with the compound.

| Structure (SMILES) | Emax |
| --- | --- |
| CC(C)(Cc1ccc(Oc2ccc(C(N)=O)cn2)cc1)NC[C@H](O)COc1cccc2[nH]c(=O)n(CC3CC3)c12 [Example 14] | 67.9% |
| CC(C)(Cc1ccc(Oc2ccc(C(N)=O)cc2Cl)cc1)NC[C@H](O)COc1cccc2[nH]c(=O)n(CC3CC3)c12 [Example 16] | 76% |
| CC(C)(C)Cn1c(=O)[nH]c2cccc(OC[C@@H](O)CNC(C)(C)Cc3ccc(Oc4ncccc4C(N)=O)cc3)c21 [Example 13] | 66.4% |
| CC(C)(C)Cn1c(=O)[nH]c2cccc(OC[C@@H](O)CNC(C)(C)Cc3ccc(Oc4ccc(C(N)=O)cn4)cc3)c21 [Example 12] | 65.5% |
| CC(C)(Cc1ccc(Oc2ncccc2C(N)=O)cc1)NC[C@H](O)COc1cccc2[nH]c(=O)n(CC3CC3)c12 [Example 15] | 80.1% |

Tested on: rat atria
Assay: In Vitro Rat Atrial Tachycardia
Conditions: isolated rat atria, cumulative addition until no further increase in atrial rate or 10^-4; average of at least 3 runs
Protocol: Male rats (250–350 g) (Harlan Sprague Dawley, Indianapolis, Ind., USA) are killed by cervical dislocation. Hearts are removed and the left and right atria are dissected and mounted with thread in tissue baths containing 10 mls of modified Krebs' solution. Initial resting tension is 1.5–2.0 g at the outset of the experiment (Naunyn-Schmied Arch. Pharmacol., 320:145, 1982). Tissues are allowed to equilibrate approximately 30 minutes with vigorous oxygenation before exposure to a compound of the invention.
To evaluate the ability of test compounds to increase heart rate, representative compounds of the present invention are added cumulatively once the atrial rate reached a steady state from the previous addition. Compound addition is continued until no further increase in atrial rate occurred or until a concentration of 10^−4 is reached. The increase in beats per minute (bpm) is measured for each concentration of test compound by means of a BioPac System (Br. J. of Pharmacol., 126:1018–1024, 1999).
The “% increase” values represent the average of at least 3 runs.

| Structure (SMILES) | % Increase in Heart Rate |
| --- | --- |
| CCn1c(=O)[nH]c2cccc(OC[C@@H](O)CNC(C)(C)Cc3ccc(Cc4ccc(C(N)=O)cn4)cc3)c21 [Ethyl, reference compound] | 19.9 ± 0.4% |
| CC(C)(Cc1ccc(Cc2ccc(C(N)=O)cn2)cc1)NC[C@H](O)COc1cccc2[nH]c(=O)n(CC3CCC3)c12 [Cyclobutylmethyl] | 6.5 ± 2.2% |
| Cn1c(=O)[nH]c2cccc(OC[C@@H](O)CNC(C)(C)Cc3ccc(Cc4ccc(C(N)=O)cn4)cc3)c21 [Methyl, reference compound] | 20.8 ± 1.8% |
| CC(C)(Cc1ccc(Cc2ccc(C(N)=O)cn2)cc1)NC[C@H](O)COc1cccc2[nH]c(=O)[nH]c12 [Hydrogen, reference compound] | 17.7 ± 3.7% |
| CC(C)(Cc1ccc(Cc2ccc(C(N)=O)cn2)cc1)NC[C@H](O)COc1cccc2[nH]c(=O)n(CC3CC3)c12 [Cyclopropylmethyl] | 8.9 ± 1.2% |
| CC(C)(Cc1ccc(Cc2ccc(C(N)=O)cn2)cc1)NC[C@H](O)COc1cccc2[nH]c(=O)n(CC3CCCC3)c12 [Cyclopentylmethyl] | 9.9 ± 0.3% |

Tested on: not given
Assay: not given
Conditions: not given

| melting point | Structure (SMILES) |
| --- | --- |
| 159 to 164 °C (dec.) | CC(C)(Cc1ccc(Oc2ccc(C(N)=O)cc2Cl)cc1)NC[C@H](O)COc1cccc2[nH]c(=O)n(CC3CCCC3)c12.Cl [Example 21] |
